Measured values from ChEMBL document CHEMBL1154175, “A dynamic target-based pharmacophoric model mapping the CD4 binding site on HIV-1 gp120 to identify new inhibitors of gp120-CD4 protein-protein interactions” (Bioorg Med Chem Lett, 2009).
pEC50: −log10 of the molar value. Active and inactive are the calls of the source. The calls are words filed in the database; no cut-off is given here.

Experiments:
[1] = system: Human immunodeficiency virus 1; experiment: Antiviral activity against HIV1 NL4-3 infected in human MT4 cells assessed as inhibition of virus-induced cytopathic effect after 5 days by MTT assay; assay type: functional, organism-based; conditions: Human immunodeficiency virus 1, NL4-3, MT4, 120 h
[2] = Cytotoxicity against human MT4 cells after 5 days by MTT assay; assay type: cell-based
[3] = system: Human immunodeficiency virus 1; experiment: Antiviral activity against HIV1 NL4-3 with gp120 mutation […] infected in human MT4 cells assessed as inhibition of virus-induced cytopathic effect after 5 days by MTT assay; assay type: functional, organism-based; conditions: Human immunodeficiency virus 1, NL4-3, MT4, 120 h
[4] = system: Human immunodeficiency virus 1; experiment: Antiviral activity against HIV1 NL4-3 infected in human MT4 cells assessed as capsid p24antigen production at 100 times EC50 treated before infection by ELISA; assay type: functional, organism-based
[5] = system: Human immunodeficiency virus 1; experiment: Antiviral activity against HIV1 NL4-3 infected in human MT4 cells assessed as capsid p24antigen production at 100 times EC50 treated after infection by ELISA; assay type: functional, organism-based

| SMILES | pEC50 [1] | CC50 at 120 h [2] [µM] | pEC50 [3] | Activity [4] | Activity [5] |
| --- | --- | --- | --- | --- | --- |
| COc1nc(N/N=C/c2ccc(-c3ccc(Cl)c([N+](=O)[O-])c3)o2)nc(N2CCOCC2)n1 | < 4.27 | > 54 |  |  |  |
| C[C@@H]1CN(C(=O)c2ccccc2)CCN1C(=O)C(=O)c1cc2ccccc2[nH]1 | 7.62 | > 2.66 | < 5.58 |  |  |
| CCOC(=O)/C(=C\c1ccc(-c2cccc([N+](=O)[O-])c2)o1)C(=O)c1ccccc1 | 5.05 | > 64 | < 4.19 | Active | inactive |
| COc1ccc(/C=N/c2nc3ccccc3n2Cc2ccc(Cl)cc2)cc1OC | < 4.21 | > 62 |  |  |  |
| C=CCn1c(SCc2ccc(C(=O)NCCO)cc2)nc2ccccc2c1=O | < 4.20 | > 63 |  |  |  |
| CCOC(=O)[C@H](Cc1ccc(/N=C/c2cc(Br)ccc2O)cc1)N1C(=O)c2ccccc2C1=O | 4.66 | > 48 | < 4.32 |  |  |
